The source of these data is the SangsterLogP compilation.

The term logP denotes a log measure of how a compound divides between an organic and an aqueous phase. Lower therefore signals lower lipophilicity. Turning to `COc1cc2c(cc1OC)CN(C1CCOC1=O)CC2` (centres undefined), the logP was determined as 1.83. The value for `COc1ccc(N2CCN(C3CCOC3=O)CC2)cc1` (centres undefined) was 1.46; that for `O=C1OCCC1N1CCN(c2ccc(F)cc2)CC1` (centres undefined) was 2.05; that for `COc1cccc(N2CCN(C3CCOC3=O)CC2)c1` (centres undefined) was 2.29. The value for `CC(Nc1ccccc1)=C1CCOC1=O` was 2.27; that for `O=C1OCCC1Oc1ccc(Oc2ccccc2)cc1` (centres undefined) was 1.32; that for `COc1ccccc1N1CCN(C2CCOC2=O)CC1` (centres undefined) was 1.44. For the molecule `COc1ccc(CNC2CCOC2=O)cc1` (centres undefined), the logP was determined as 1.43. The value for `O=C1OCCC1N1CCN(c2ccccc2)CC1` (centres undefined) was 1.65; that for `CC1CC(NCc2ccccc2)C(=O)O1` (centres undefined) was 1.76; that for `O=C1OCCC1NCc1ccccc1` (centres undefined) was 1.47.

On to `Cc1cccc(C)c1NC1CCOC1=O` (centres undefined), for which the logP came out at 1.39.

The molecule `O=C1OCCC1N1Cc2ccccc2C1` (centres undefined) gave a log partition coefficient (logP) of 1.2.

`O=C(NC1CCOC1=O)c1ccccc1` (centres undefined) gave a logP of 0.84. Turning to `O=C1OCCC1N1CCc2ccccc2C1` (centres undefined), the logP is 1.6. As for `O=C1OCCC1NCc1ccccc1C(F)(F)F` (centres undefined), the figure is 1.83; as for `CC1CC(N2CCN(c3ccccc3)CC2)C(=O)O1` (centres undefined), 1.56; as for `O=C1OCCC1NCc1ccc(Cl)cc1` (centres undefined), 1.97. As for `COc1ccc(Cl)cc1N1CCN(C2CCOC2=O)CC1` (centres undefined), the figure is 1.18; as for `COc1ccc(CCNC(C)=C2CCOC2=O)cc1OC`, 2.53. The value for `COc1cc2c(cc1OC)C(c1ccccc1)N(C1CCOC1=O)CC2` (centres undefined) was 3.12. In turn, `O=C(Cc1ccccc1)NC1CCOC1=O` (centres undefined) came in with a logP of 0.8. As for `NC(=O)c1ccccc1OC1CCOC1=O` (centres undefined), the lipophilicity (logP) came to 0.93. In turn, `O=C1OCCC1N1CCC(c2ccccc2)CC1` (centres undefined) gave a logP of 2.43.

`O=C1OCCC1N1C(=O)c2ccccc2C1=O` (centres undefined) yielded a logP of 1.11. As for `O=C1CC(N2CCN(c3ccccc3)CC2)CO1` (centres undefined), the logP was determined as 1.22. Turning to `O=C1OCCC1N1CCN(c2cccc(C(F)(F)F)c2)CC1` (centres undefined), the lipophilicity (logP) stood at 2.94. As for `CC(NCc1ccccc1)=C1CCOC1=O`, the figure is 2.21; as for `O=C1OCCC1N1CCN(C(c2ccccc2)c2ccccc2)CC1` (centres undefined), 3.28.
